Where two headings read alike, the source gives them in different places.
Test system: influenza virus (influenza A/Kitakyusyu/159/93(H3N2))
Assay type: cell-based
Conditions: 10 minutes at room temperature, PBS control 128

[Cu+].[Cu+].[S-2] [compound 26, COPPER(I) SULFIDE]
HA TITER (material concentration 0.5 percent by mass in PBS): 64 | HA TITER (material concentration 5 percent by mass in PBS): 16

Source: US9155309B2, “Virus inactivating sheet” (priority 2009, dated 2015)
